For data set [1], the target named is T1, human Menin and N-terminal portion of human MLL (amino acids 4-43) (Homo sapiens, UniProt O00255).
T1 construct: H-FL-Menin diluted to 4 nM in assay buffer
T1 sequence (O00255 1-610): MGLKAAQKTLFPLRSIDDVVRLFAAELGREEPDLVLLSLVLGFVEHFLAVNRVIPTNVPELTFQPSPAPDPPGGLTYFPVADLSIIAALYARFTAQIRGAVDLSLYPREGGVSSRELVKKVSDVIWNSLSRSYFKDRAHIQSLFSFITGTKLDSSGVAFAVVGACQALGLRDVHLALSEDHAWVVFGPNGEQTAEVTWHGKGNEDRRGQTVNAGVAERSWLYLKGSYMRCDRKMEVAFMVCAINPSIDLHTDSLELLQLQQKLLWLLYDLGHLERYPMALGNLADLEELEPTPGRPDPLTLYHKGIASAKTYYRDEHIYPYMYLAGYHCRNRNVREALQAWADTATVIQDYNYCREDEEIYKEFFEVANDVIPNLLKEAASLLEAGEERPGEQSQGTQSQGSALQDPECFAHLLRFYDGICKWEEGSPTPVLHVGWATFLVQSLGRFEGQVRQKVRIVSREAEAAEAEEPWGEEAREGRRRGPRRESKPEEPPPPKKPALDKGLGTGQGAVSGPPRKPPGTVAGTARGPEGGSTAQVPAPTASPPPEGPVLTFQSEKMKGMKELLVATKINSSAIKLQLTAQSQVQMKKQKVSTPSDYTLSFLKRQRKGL
The data set is described as follows: Menin-MLL competition assay (HTRF). The class given is binding. Conditions: 1 hr incubation. The source says:
Menin-MLL is a competition assay between human Menin and N-terminal portion of human MLL representing amino acids 4-43 of the protein. The interaction between Menin and MLL peptide was monitored by HTRF employing Terbium labeled anti-His6 antibody directed to the N-terminal His6-tag on recombinant Menin and FITC group covalently attached to the MLL peptide. The N-terminal fragment of MLL, retained in all MLL fusion proteins, is involved in the interactions with Menin, and this protein-protein interaction is critical for the MLL fusion proteins mediated leukemogenic transformations.
For IC50 determination test compounds were prepared as 10 mM DMSO stock solutions. Considering DMSO as the vehicle in the assay system. Lower sub-stocks of 50 μM were prepared from the 10 mM stock solution. To test the compounds in assay, 3.16-fold serial dilutions are made in 100% DMSO. Mid-stock of 50×compounds (50 μM) were serially diluted (3.16 fold) in 100% DMSO in Polypropylene plate. In assay plate 1 micro-litre of the previously prepared compound dilution was stamped. H-FL-Menin diluted to 4 nM in assay buffer (50 mM Tris-HCl, pH 7.4, 50 mM NaCl, freshly prepared 1 mM DTT, 0.01% BSA, 0.005% Triton X-100) was pre-incubated with 8 nM anti-His6-Tb for 30 min at room temperature. FITC-MLL-4-43 was diluted to 2 nM in assay buffer and 25 μL was dispensed into each well of the assay plate followed by addition of 25 μl of pre-incubated H-FL-Menin and anti-His6-Tb mixture. Final concentration H-FL-Menin diluted to 1 nM in assay plate with 2 nM anti-His6-Tb and 1 nM FITC-MLL-4-43. After 1 hr incubation at room temperature, the HTRF signal was measured on the Spark multi-label plate reader. Resulting data were captured as a ratio of RFU520/RFU485×1000. The max values were obtained from 0% inhibition in presence of 2% DMSO and the min. values were 100% inhibition in presence of 1 μM reference compound.
A general note: In TR-FRET formats the signal depends on donor and acceptor labels being close together.

The target of data set [2] is hERG (Homo sapiens, UniProt Q12809). Briefly: Patch clamp assay (hERG tail currents, whole-cell). Conditions: 30 μM compound. (In general: In patch-clamp work, channel activity is measured electrically.)
Chain of hERG (Q12809 whole entry): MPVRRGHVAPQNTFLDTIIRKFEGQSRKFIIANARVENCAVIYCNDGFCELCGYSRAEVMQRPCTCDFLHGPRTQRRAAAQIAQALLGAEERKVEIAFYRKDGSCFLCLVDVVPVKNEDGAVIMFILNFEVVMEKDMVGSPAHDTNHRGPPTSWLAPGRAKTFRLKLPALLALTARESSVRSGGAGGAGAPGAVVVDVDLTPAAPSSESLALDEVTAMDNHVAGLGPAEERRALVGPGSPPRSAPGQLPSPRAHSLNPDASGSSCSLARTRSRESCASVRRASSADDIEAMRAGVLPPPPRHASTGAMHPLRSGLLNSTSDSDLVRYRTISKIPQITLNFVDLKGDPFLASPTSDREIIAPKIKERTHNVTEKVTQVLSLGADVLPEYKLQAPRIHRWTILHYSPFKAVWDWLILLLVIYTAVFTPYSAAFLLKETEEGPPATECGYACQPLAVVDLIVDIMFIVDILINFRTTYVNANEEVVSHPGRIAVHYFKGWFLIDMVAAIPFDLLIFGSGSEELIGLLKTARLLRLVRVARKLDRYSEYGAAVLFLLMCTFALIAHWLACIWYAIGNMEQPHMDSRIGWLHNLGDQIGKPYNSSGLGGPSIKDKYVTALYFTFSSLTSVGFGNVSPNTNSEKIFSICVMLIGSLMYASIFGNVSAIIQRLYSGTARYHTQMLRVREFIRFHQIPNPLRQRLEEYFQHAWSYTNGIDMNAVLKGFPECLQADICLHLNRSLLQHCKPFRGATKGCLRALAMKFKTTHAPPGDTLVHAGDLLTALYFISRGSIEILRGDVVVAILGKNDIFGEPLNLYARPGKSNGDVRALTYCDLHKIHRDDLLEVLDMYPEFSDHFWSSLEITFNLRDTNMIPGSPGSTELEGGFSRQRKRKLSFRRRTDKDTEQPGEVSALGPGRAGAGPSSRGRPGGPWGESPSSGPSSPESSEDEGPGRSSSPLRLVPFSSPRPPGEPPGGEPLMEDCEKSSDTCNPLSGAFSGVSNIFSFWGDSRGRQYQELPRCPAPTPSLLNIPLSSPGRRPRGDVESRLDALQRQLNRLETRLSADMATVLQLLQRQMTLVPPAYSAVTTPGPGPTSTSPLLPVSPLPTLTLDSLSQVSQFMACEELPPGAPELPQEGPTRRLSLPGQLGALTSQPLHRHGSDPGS
Description: The 35 mm culture dishes upon which cells were seeded at a density allowing single cells to be recorded were placed on the dish holder of the microscope and continuously perfused (at approximately 1 mL/min) with the bath solution described in section 4.6. All solutions applied to cells including the pipette solution were maintained at room temperature (19° C. to 30° C.). After formation of a Gigaohm seal between the patch electrodes and individual hERG stably transfected HEK 293 cells (pipette resistance range: 2.0 MS to 7.0 MS; seal resistance range: >1GΩ) the cell membrane across the pipette tip was ruptured to assure electrical access to the cell interior (whole-cell patch-configuration). In case the quality of the seal was poor, the process of seal formation was repeated with a different cell and a new pipette. As soon as a stable seal could be established, hERG outward tail currents were measured upon depolarization of the cell membrane to +20 mV for 2 s (activation of channels) from a holding potential of −80 mV and upon subsequent repolarization to −40 mV for 3 s. This voltage protocol (as shown below) was run at least 10 times at intervals of 10 s. If current density was judged to be too low for measurement, another cell was recorded.
During wash-in of the test item the voltage protocol indicated above was run continuously again at 10 s intervals until the steady-state level of block was reached.
The IC50 was determined by fitting the dose response curve with a 2-parameter logistic function (amax=100%).
For data set [3], the system named is MLLr leukemia cell line MV4-11. Briefly: Cell proliferation assay MV4;11 (CellTiter-Glo, 72 hours). The format is cell-based. The conditions noted are these: Homo sapiens, read-out: MV4. A digest of the protocol: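 Cells in IMDM/10% FBS, seeded from a 15,000 cells/ml suspension, were exposed for 72 h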
The mark [4] stands for this setting: MV4-11 cells, 72 hours, CellTiter-Glo, 11 IC50.

Experimental findings from patent US20240400564A1 (Syndax Pharmaceuticals, Inc, priority 2021, published 2024) are described below.

Read-outs that look alike come from different tables or passages of the source.

In data set [1], `CCN(C(=O)c1cc(F)ccc1Oc1cncnc1N1CC2(CCN(C[C@@H]3CC[C@@H](NS(=O)(=O)C(C)C)CO3)CC2)C1)C(C)C` [Example 3, N-Ethyl-5-fluoro-N-isopropyl-2-((4-(7-(((2S,5R)-5-((1-methylethyl)sulfonamido)tetrahydro-2H-pyran-2-yl)methyl)-2,7-diazaspiro[3.5]nonan-2-yl)pyrimidin-5-yl)oxy)benzamide] returned an IC50 below 100 nM. Same read-out and setting: with `CCN(C(=O)c1cc(F)ccc1Oc1cncnc1N1CC2(CCN(C[C@@H]3CC[C@@H](NS(=O)(=O)C4COC4)CO3)CC2)C1)C(C)C` [Example 5, N-Ethyl-5-fluoro-N-isopropyl-2-((4-(7-(((2S,5R)-5-(oxetane-3-sulfonamido)tetrahydro-2H-pyran-2-yl)methyl)-2,7-diazaspiro[3.5]nonan-2-yl)pyrimidin-5-yl)oxy)benzamide] the figure was below 100 nM; with `CCN(C(=O)c1cc(F)ccc1Oc1cncnc1N1CC2(CCN(C[C@@H]3CC[C@@H](NS(=O)(=O)CC4CC4)CO3)CC2)C1)C(C)C` [Example 7, 2-((4-(7-(((2S,5R)-5-((Cyclopropylmethyl)sulfonamido)tetrahydro-2H-pyran-2-yl)methyl)-2,7-diazaspiro[3.5]nonan-2-yl)pyrimidin-5-yl)oxy)-N-ethyl-5-fluoro-N-isopropylbenzamide], below 100 nM; with `CCN(C(=O)c1cc(F)ccc1Oc1cncnc1N1CC2(CCN(C[C@@H]3CC[C@@H](NS(=O)(=O)CCOC)CO3)CC2)C1)C(C)C` [Example 8, N-Ethyl-5-fluoro-N-isopropyl-2-((4-(7-(((2S,5R)-5-((2-methoxyethyl)sulfonamido)tetrahydro-2H-pyran-2-yl)methyl)-2,7-diazaspiro[3.5]nonan-2-yl)pyrimidin-5-yl)oxy)benzamide], below 100 nM.

With `CCCS(=O)(=O)N[C@@H]1CC[C@@H](CN2CCC3(CC2)CN(c2ncncc2Oc2ccc(F)cc2C(=O)N(CC)C(C)C)C3)OC1` [Example 9, N-Ethyl-5-fluoro-N-isopropyl-2-((4-(7-(((2S,5R)-5-(propylsulfonamido)tetrahydro-2H-pyran-2-yl)methyl)-2,7-diazaspiro[3.5]nonan-2-yl)pyrimidin-5-yl)oxy)benzamide], in data set [1], the IC50 is below 100 nM.

In turn, `CC(C)N(C(=O)c1cc(F)ccc1Oc1cncnc1N1CC2(CCN(C[C@@H]3CC[C@@H](NC(=O)OC(C)(C)C)CO3)CC2)C1)C1CC1` [Example 17, tert-Butyl ((3R,6S)-6-((2-(5-(2-(cyclopropyl(isopropyl)carbamoyl)-4-fluorophenoxy)pyrimidin-4-yl)-2,7-diazaspiro[3.5]nonan-7-yl)methyl)tetrahydro-2H-pyran-3-yl)carbamate] yielded an IC50 in data set [1] below 100 nM. In data set [1], `CC(C)N(C(=O)c1cc(F)ccc1Oc1cncnc1N1CC2(CCN(C[C@@H]3CC[C@@H](NS(=O)(=O)C(C)C)CO3)CC2)C1)C1CC1` [Example 20, N-Cyclopropyl-5-fluoro-N-isopropyl-2-((4-(7-(((2S,5R)-5-((1-methylethyl)sulfonamido)tetrahydro-2H-pyran-2-yl)methyl)-2,7-diazaspiro[3.5]nonan-2-yl)pyrimidin-5-yl)oxy)benzamide] returned an IC50 below 100 nM. The same measure, in the same setting: with `CC(C)N(C(=O)c1cc(F)ccc1Oc1cncnc1N1CC2(CCN(C[C@@H]3CC[C@@H](NS(=O)(=O)C4COC4)CO3)CC2)C1)C1CC1` [Example 22, N-Cyclopropyl-5-fluoro-N-isopropyl-2-((4-(7-(((2S,5R)-5-(oxetane-3-sulfonamido)tetrahydro-2H-pyran-2-yl)methyl)-2,7-diazaspiro[3.5]nonan-2-yl)pyrimidin-5-yl)oxy)benzamide] the figure was below 100 nM. As for `CO[C@H]1CCN(S(=O)(=O)N[C@@H]2CC[C@@H](CN3CCC4(CC3)CN(c3ncncc3Oc3ccc(F)cc3C(=O)N(C(C)C)C(C)C)C4)OC2)C1` [Example 210, 5-Fluoro-N,N-diisopropyl-2-((4-(7-(((2S,5R)-5-(((S)-3-methoxypyrrolidine)-1-sulfonamido)tetrahydro-2H-pyran-2-yl)methyl)-2,7-diazaspiro[3.5]nonan-2-yl)pyrimidin-5-yl)oxy)benzamide], the “hERG % Remaining” value in data set [2] is on record as “+++ (≥66%)”. Also, the IC50 in data set [3] (setting [4]) is below 100 nM. For `CO[C@@H]1CCN(S(=O)(=O)N[C@@H]2CC[C@@H](CN3CCC4(CC3)CN(c3ncncc3Oc3ccc(F)cc3C(=O)N(C(C)C)C(C)C)C4)OC2)C1` [Example 211, 5-Fluoro-N,N-diisopropyl-2-((4-(7-(((2S,5R)-5-(((R)-3-methoxypyrrolidine)-1-sulfonamido)tetrahydro-2H-pyran-2-yl)methyl)-2,7-diazaspiro[3.5]nonan-2-yl)pyrimidin-5-yl)oxy)benzamide] the same measures were “+++ (≥66%)” and below 100 nM. `CCN(C(=O)c1cc(F)ccc1Oc1cncnc1N1CC2(CCN(C[C@@H]3CC[C@@H](NS(=O)(=O)c4ccc(=O)[nH]c4C)CO3)CC2)C1)C(C)C` [Example 217, N-Ethyl-5-fluoro-N-isopropyl-2-((4-(7-(((2S,5R)-5-((2-methyl-6-oxo-1,6-dihydropyridine)-3-sulfonamido)tetrahydro-2H-pyran-2-yl)methyl)-2,7-diazaspiro[3.5]nonan-2-yl)pyrimidin-5-yl)oxy)benzamide]: the “hERG % Remaining” value in data set [2] is on record as “+++ (≥66%)”. Further, in data set [3] (setting [4]), the IC50 was below 100 nM. With `CCN(C(=O)c1cc(F)ccc1Oc1cncnc1N1CC2(CCN(C[C@@H]3CC[C@@H](NS(=O)(=O)c4c[nH]c(=O)c(C)c4)CO3)CC2)C1)C(C)C` [Example 218, N-Ethyl-5-fluoro-N-isopropyl-2-((4-(7-(((2S,5R)-5-((5-methyl-6-oxo-1,6-dihydropyridine)-3-sulfonamido)tetrahydro-2H-pyran-2-yl)methyl)-2,7-diazaspiro[3.5]nonan-2-yl)pyrimidin-5-yl)oxy)benzamide], the “hERG % Remaining” value in data set [2] is reported as “+ (<33%)”. In data set [3] (setting [4]), the IC50 was below 100 nM. For `CC(C)N(C(=O)c1cc(F)ccc1Oc1cncnc1N1CC2(CCN(C[C@@H]3CC[C@@H](NS(=O)(=O)N4CC5COCC5C4)CO3)CC2)C1)C(C)C` (stereo partly drawn) [Example 224, 5-Fluoro-2-((4-(7-(((2S,5R)-5-((hexahydro-1H-furo[3,4-c]pyrrole)-5-sulfonamido)tetrahydro-2H-pyran-2-yl)methyl)-2,7-diazaspiro[3.5]nonan-2-yl)pyrimidin-5-yl)oxy)-N,N-diisopropylbenzamide] the same measures were “+++ (≥66%)” and below 100 nM. With `CCS(=O)(=NC)N[C@@H]1CC[C@@H](CN2CCC3(CC2)CN(c2ncncc2Oc2ccc(F)cc2C(=O)N(C(C)C)C(C)C)C3)OC1` (stereo partly drawn) [Example 231, 5-Fluoro-N,N-diisopropyl-2-((4-(7-(((2S,5R)-5-(N′-methylethylsulfonoamidimidamido)tetrahydro-2H-pyran-2-yl)methyl)-2,7-diazaspiro[3.5]nonan-2-yl)pyrimidin-5-yl)oxy)benzamide], in data set [2], the “hERG % Remaining” value was “+++ (≥66%)”. In addition, in data set [3] (MV4-11, 72 h, 11 IC50 (nM)), the IC50 was below 100 nM. For `CC(C)N(CC(F)F)C(=O)c1cc(F)ccc1Oc1cncnc1N1CC2(CCN(C[C@@H]3CC[C@@H](NS(=O)(=O)c4nn(C)cc4F)CO3)CC2)C1` [Example 241, N-(2,2-Difluoroethyl)-5-fluoro-2-((4-(7-(((2S,5R)-5-((4-fluoro-1-methyl-1H-pyrazole)-3-sulfonamido)tetrahydro-2H-pyran-2-yl)methyl)-2,7-diazaspiro[3.5]nonan-2-yl)pyrimidin-5-yl)oxy)-N-isopropylbenzamide], the “hERG % Remaining” value in data set [2] was “++ (233% and ≤66%)”. Further, in data set [3] (setting [4]), the IC50 is below 100 nM.
